How the values were obtained:
[1] = system: recombinant NL4-3 virus (Renilla luciferase in nef) in MT-2 cells; test: whole plant or invertebrate; assay type: cell-based, HIV; settings: Renilla, NL43, MT-2 cells infected for 4-5 days with recombinant NL4-3 Renilla luciferase virus; luciferase activity
Description: HIV cell culture assay—MT-2 cells, 293T cells and the proviral DNA clone of NL4-3 virus were obtained from the NIH AIDS Research and Reference Reagent Program. MT-2 cells were propagated in RPMI 1640 media supplemented with 10% heat inactivated fetal bovine serum (FBS), 100 μg/ml penicillin G and up to 100 units/mL streptomycin. The 293T cells were propagated in DMEM media supplemented with 10% heat inactivated FBS, 100 μg/mL penicillin G and 100 μg/mL streptomycin. A recombinant NL4-3 proviral clone, in which a section of the nef gene was replaced with the Renilla luciferase gene, was used to make the reference virus used in these studies. The recombinant virus was prepared through transfection of the recombinant NL4-3 proviral clone into 293T cells using Transit-293 Transfection Reagent from Mirus Bio LLC (Madison, Wis.). Supernatent was harvested after 2-3 days and the amount of virus present was titered in MT-2 cells using luciferase enzyme activity as a marker by measuring luciferase enzyme activity. Luciferase was quantitated using the EnduRen Live Cell Substrate from Promega (Madison, Wis.). Antiviral activities of compounds toward the recombinant virus were quantified by measuring luciferase activity in MT-2 cells infected for 4-5 days with the recombinant virus in the presence of serial dilutions of the compound.
(Johnson V A, Byington R T. Infectivity Assay. In Techniques in HIV Research. ed. Aldovini A, Walker BD. 71-76. New York: Stockton Press.1990).

[2] = Compound cytotoxicity, XTT-based colorimetric assay; assay type: cell-based; settings: human, uninfected MT2 cells, day 4, XTT
Description: Compound cytotoxicity and the corresponding CC50 values were determined using the same protocol as described in the antiviral assay except that uninfected cells were used. Cytotoxicity was assessed on day 4 in uninfected MT2 cells by using a XTT (2,3-bis[2-Methoxy-4-nitro-5-sulfophenyl]-2H-tetrazolium-5-carboxyanilide inner salt)-based colorimetric assay (Sigma-Aldrich, St Louis, Mo.).

Structure (SMILES)	EC50 [1] [µM]	CC50 at 4 days [2] [µM]
COc1ccc(N(C)C(=O)[C@H](Cc2ccccc2)NC(=O)CN2c3ccccc3N(CC(=O)N[C@@H](Cc3ccccc3)C(=O)N(C)c3ccc(OC)cc3)S2(=O)=O)cc1 [Example 27]	0.04	≥ 100
COc1ccc(N(C)C(=O)[C@H](Cc2ccccc2)NS(=O)(=O)CCCS(=O)(=O)N[C@@H](Cc2ccccc2)C(=O)N(C)c2ccc(OC)cc2)cc1 [Example 28]	1.4	30
COc1ccc(N(C)C(=O)[C@H](Cc2ccccc2)NC(=O)CN(CCO)CC(=O)N[C@@H](Cc2ccccc2)C(=O)N(C)c2ccc(OC)cc2)cc1 [Example 29]	2.49	31.8
COc1ccc(N(C)C(=O)[C@H](Cc2ccccc2)NC(=O)CC(C)(C)C(=O)N[C@@H](Cc2ccccc2)C(=O)N(C)c2ccc(OC)cc2)cc1 [Example 30]	4.96	31.2
COc1ccc(N(C)C(=O)[C@H](Cc2ccccc2)NC(=O)/C=C/C(=O)N[C@@H](Cc2ccccc2)C(=O)N(C)c2ccc(OC)cc2)cc1 [Example 31]	0.78	3.5
COc1ccc(N(C)C(=O)[C@H](Cc2ccccc2)NC(=O)C[C@H](O)C(=O)N[C@@H](Cc2ccccc2)C(=O)N(C)c2ccc(OC)cc2)cc1 [Example 32]	3.29	34.6
COc1ccc(N(C)C(=O)[C@H](Cc2cc(F)cc(F)c2)NC(=O)CN2c3ccccc3N(CC(=O)N[C@@H](Cc3cc(F)cc(F)c3)C(=O)N(C)c3ccc(OC)cc3)S2(=O)=O)cc1 [Example 34]	0.01	≥ 100
COc1ccc(N(C)C(=O)[C@H](Cc2ccccc2)NS(=O)(=O)NC(=O)N[C@@H](Cc2ccccc2)C(=O)N(C)c2ccc3scnc3c2)cc1 [Example 35]	0.03	99.9
O=C(N[C@@H](Cc1cc(F)cc(F)c1)c1ncccc1Br)NS(=O)(=O)N[C@@H](Cc1cc(F)cc(F)c1)c1ncccc1Br [Example 36]	7.27	65.3
COc1ccc(N(C)C(=O)[C@H](Cc2ccccc2)NC(=O)Cn2c(=O)n(CC(=O)N[C@@H](Cc3ccccc3)C(=O)N(C)c3ccc(OC)cc3)c3ccccc32)cc1 [Example 37]	0.07	19.9
COc1ccc(N(C)C(=O)[C@H](Cc2ccccc2)NC(=O)Cc2ccccc2CC(=O)N[C@@H](Cc2ccccc2)C(=O)N(C)c2ccc(OC)cc2)cc1 [Example 38]	0.55	45
COc1ccc(N(C)C(=O)[C@H](Cc2ccccc2)NC(=O)c2cccc(C(=O)N[C@@H](Cc3ccccc3)C(=O)N(C)c3ccc(OC)cc3)n2)cc1 [Example 39]	0.95	≥ 33.3
COc1ccc(N(C)C(=O)[C@H](Cc2ccccc2)NC(=O)CCN2CCN(CCC(=O)N[C@@H](Cc3ccccc3)C(=O)N(C)c3ccc(OC)cc3)CC2)cc1 [Example 40]	0.31	36
COc1ccc(N(C)C(=O)[C@H](Cc2ccccc2)NC(=O)CCSCCC(=O)N[C@@H](Cc2ccccc2)C(=O)N(C)c2ccc(OC)cc2)cc1 [Example 41]	0.1	23
COc1ccc(N(C)C(=O)[C@H](Cc2ccccc2)NC(=O)Cc2cccc(CC(=O)N[C@@H](Cc3ccccc3)C(=O)N(C)c3ccc(OC)cc3)c2)cc1 [Example 42]	0.85	40.7
COc1ccc(N(C)C(=O)[C@H](Cc2cc(F)cc(F)c2)NC(=O)Cc2cccc(CC(=O)N[C@@H](Cc3cc(F)cc(F)c3)C(=O)N(C)c3ccc(OC)cc3)c2)cc1 [Example 43]	0.48	3.7
COc1ccc(N(C)C(=O)[C@H](Cc2ccccc2)NC(=O)NS(=O)(=O)N[C@@H](Cc2cc(F)cc(F)c2)C(=O)N(C)c2ccc(OC)cc2)cc1 [Example 44]	0.02	67
COc1ccc(N(C)C(=O)[C@H](Cc2cc(F)cc(F)c2)NC(=O)NS(=O)(=O)N[C@@H](Cc2ccccc2)C(=O)N(C)c2ccc(OC)cc2)cc1 [Example 45]	0.01	38.8
COc1ccc(N(C)C(=O)[C@H](Cc2ccccc2)NC(=O)Cc2ccc(CC(=O)N[C@@H](Cc3ccccc3)C(=O)N(C)c3ccc(OC)cc3)cc2)cc1 [Example 47]	2.76	11.1
COc1ccc(N(C)C(=O)[C@H](Cc2ccccc2)NC(=O)CN2CCN(CC(=O)N[C@@H](Cc3ccccc3)C(=O)N(C)c3ccc(OC)cc3)C2=O)cc1 [Example 48]	0.17	30.9

Structure (SMILES)	EC50 [1] [µM]	CC50 at 4 days [2] [µM]
COc1ccc(N(C)C(=O)[C@H](Cc2cc(F)cc(F)c2)NC(=O)c2cccc(C(=O)N[C@@H](Cc3cc(F)cc(F)c3)C(=O)N(C)c3ccc(OC)cc3)c2)cc1 [Example 49]	0.04	10.8
CN(C(=O)[C@H](Cc1ccccc1)NC(=O)c1cccc(C(=O)N[C@@H](Cc2ccccc2)C(=O)N(C)c2ccc3scnc3c2)c1)c1ccc2scnc2c1 [Example 50]	0.04	3.7
CN(C(=O)[C@H](Cc1cc(F)cc(F)c1)NC(=O)c1cccc(C(=O)N[C@@H](Cc2cc(F)cc(F)c2)C(=O)N(C)c2ccc3scnc3c2)c1)c1ccc2scnc2c1 [Example 51]	0.01	≥ 100
COc1ccc(N(C)C(=O)[C@H](Cc2ccccc2)NC(=O)[C@@H]2CC[C@H](C(=O)N[C@@H](Cc3ccccc3)C(=O)N(C)c3ccc(OC)cc3)C2)cc1 [Example 52]	1.14	22.6
COc1ccc(N(C)C(=O)[C@H](Cc2ccccc2)NC(=O)c2cc(C(=O)O)cc(C(=O)N[C@@H](Cc3ccccc3)C(=O)N(C)c3ccc(OC)cc3)c2)cc1 [Example 55]	10.1	85.8
COc1ccc(N(C)C(=O)[C@H](Cc2ccccc2)NC(=O)OCCOC(=O)N[C@@H](Cc2ccccc2)C(=O)N(C)c2ccc(OC)cc2)cc1 [Example 56]	2.6	10.5
COc1ccc(N(C)C(=O)[C@H](Cc2ccccc2)NC(=O)c2cc(C(=O)N[C@@H](Cc3ccccc3)C(=O)N(C)c3ccc(OC)cc3)[nH]n2)cc1 [Example 57]	1.58	3.5
COc1ccc(N(C)C(=O)[C@H](Cc2ccccc2)NC(=O)c2ccc(C(=O)N[C@@H](Cc3ccccc3)C(=O)N(C)c3ccc(OC)cc3)s2)cc1 [Example 58]	0.61	3.3
COc1ccc(N(C)C(=O)[C@H](Cc2ccccc2)NC(=O)c2nc[nH]c2C(=O)N[C@@H](Cc2ccccc2)C(=O)N(C)c2ccc(OC)cc2)cc1 [Example 59]	3.34	11
COc1ccc(N(C)C(=O)[C@H](Cc2ccccc2)NC(=O)Cc2cn(CC(=O)N[C@@H](Cc3ccccc3)C(=O)N(C)c3ccc(OC)cc3)c3ccccc23)cc1 [Example 61]	0.61	32.6
COc1ccc(N(C)C(=O)[C@H](Cc2ccccc2)NC(=O)[C@H](Cc2ccccc2)NC(=O)N[C@@H](Cc2ccccc2)C(=O)N[C@@H](Cc2ccccc2)C(=O)N(C)c2ccc(OC)cc2)cc1 [Example 62]	0.49	≥ 100
COc1ccc(N(C)C(=O)[C@H](Cc2ccccc2)NC(=O)CS(=O)(=O)N[C@@H](Cc2ccccc2)C(=O)N(C)c2ccc(OC)cc2)cc1 [Example 63]	1.09	30.2
COc1ccc(N(C)C(=O)[C@H](Cc2cc(F)cc(F)c2)NC(=O)CS(=O)(=O)N[C@@H](Cc2cc(F)cc(F)c2)C(=O)N(C)c2ccc(OC)cc2)cc1 [Example 64]	0.38	11.3
CN(C(=O)[C@H](Cc1ccccc1)NC(=O)CS(=O)(=O)N[C@@H](Cc1ccccc1)C(=O)N(C)c1ccc2scnc2c1)c1ccc2scnc2c1 [Example 65]	0.32	34.6
COc1ccc(N(C)C(=O)[C@H](Cc2ccccc2)NC(=O)CNC(=O)NCC(=O)N[C@@H](Cc2ccccc2)C(=O)N(C)c2ccc(OC)cc2)cc1 [Example 68]	1.42	69.3
COc1ccc(N(C)C(=O)[C@H](Cc2cc(F)cc(F)c2)NC(=O)Cn2c(=O)n(CC(=O)N[C@@H](Cc3cc(F)cc(F)c3)C(=O)N(C)c3ccc(OC)cc3)c3ccccc32)cc1 [Example 69]	0.02	11.8
NC(=O)c1cc(-c2cccnc2[C@H](Cc2cc(F)cc(F)c2)NC(=O)NS(=O)(=O)N[C@@H](Cc2cc(F)cc(F)c2)c2ncccc2-c2ccc(F)c(C(N)=O)c2)ccc1F [Example 70]	0.15	≥ 100
COc1ccc(N(C)C(=O)[C@H](Cc2ccccc2)NC(=O)Cn2c(=O)n(CC(=O)N[C@@H](Cc3ccccc3)C(=O)N(C)c3ccc(OC)cc3)c3cc(Cl)ccc32)cc1 [Example 71]	0.08	6.5
COc1ccc(N(C)C(=O)[C@H](Cc2cc(F)cc(F)c2)NC(=O)Cn2c(=O)n(CC(=O)N[C@@H](Cc3cc(F)cc(F)c3)C(=O)N(C)c3ccc(OC)cc3)c3cc(Cl)ccc32)cc1 [Example 72]	0.04	4.4

From patent publication US20180072997A1, “INHIBITORS OF HUMAN IMMUNODEFICIENCY VIRUS REPLICATION” (ViiV HEATHCARE UK (NO.5) LIMITED, priority 2015, published 2018)
